Data as given in publication PMC9861386, “N-Heterocyclic Carbene-Iridium Complexes as Photosensitizers for In Vitro Photodynamic Therapy to Trigger Non-Apoptotic Cell Death in Cancer Cells” (Molecules, 2023).
Like-named read-outs stand apart in the source and are kept apart here.

Tests used:
MC3T3 osteoblasts = test: MTT cell viability, 72 h, dark or 458 nm irradiation; assay type: cell-based, murine
Method: (§1) For all biology experiments, the compounds were solubilized in DMSO to reach a final fixed concentration equal to 0.1% v/v to avoid cytotoxicity caused by DMSO [89]. The results are normalized to controls (0.1% v/v DMSO). Depending on the cell type, approximatively 1000 to 10,000 cells/cm^2 were seeded in 48-well plates for MTT, ATP and GSH assays and 60 mm Petri dishes for Western blots. Cells were allowed to attach overnight and then incubated for 4 h with the different complexes (in the dark), then irradiated for 10 min, followed by an incubation in the dark up to 72 h.
(§2) Irradiation was conducted using an in-house device: a series of blue light LEDs selected according to the absorption spectra of the compounds at a 458 nm wavelength with an emitted power of 9.6 watts. The absorbed energy, or irradiance, was measured at 458 nm with a Thorlabs Optical Power Meter PM100A at 5 and 10 cm distance between the cell layer and the light source and expressed as mW/cm^2.
(§3) A tetrazolium-based MTT reagent (3-(4,5-dimethylthiazol-2-yl)-2,5-diphenyltetrazolium bromide) was used to determine cell viability, as previously described. After 72 h of treatment at 37 °C and 5% CO2, cells were incubated with 25 μL MTT solution (5 mg/mL; Sigma-Aldrich) for 4 h. After solubilization with 500 μL of lysis buffer (DMSO), formazan was quantified by spectrophotometry with a microplate reader at 570 nm absorbance (ClarioSTAR, BMG LabTech, Champigny-sur-Marne, France). GI50 values corresponding to the concentration that caused 50% inhibition of cell proliferation were calculated from dose–response curves obtained by nonlinear regression analysis. All results were calculated from data obtained in at least three independent experiments.

NIH-3T3 fibroblasts = test: as above; assay type: cell-based, murine; settings: for GI50: 72 h, MTT; for PI NIH-3T3: GI50 non-irradiated / GI50 irradiated
Method: as §1, §2, §3

A549 lung cancer cells = test: as above; assay type: cell-based, human; settings: for GI50: 72 h, MTT; for PI A549: GI50 non-irradiated / GI50 irradiated; for SI vs MC3T3, A549 Blue / SI vs NIH, A549 Blue: blue light; for SI vs MC3T3, A549 Blue / SI vs MC3T3, A549 Dark: GI50 MC3T3 / GI50 A549; for SI vs NIH, A549 Blue / SI vs NIH, A549 Dark: GI50 NIH-3T3 / GI50 A549
Method: as §1, §2, §3

HeLa cervix cancer cells = test: as above; assay type: cell-based, human; settings: for GI50: 72 h, MTT; for PI HeLa: GI50 non-irradiated / GI50 irradiated; for SI vs MC3T3, HeLa Blue / SI vs NIH, HeLa Blue: blue light; for SI vs MC3T3, HeLa Blue / SI vs MC3T3, HeLa Dark: GI50 MC3T3 / GI50 HeLa; for SI vs NIH, HeLa Blue / SI vs NIH, HeLa Dark: GI50 NIH-3T3 / GI50 HeLa
Method: as §1, §2, §3

[1] = test system: MCF7/FasR breast cancer cells; test: as above; assay type: cell-based, human; settings: for GI50: 72 h, MTT; for PI MCF7: GI50 non-irradiated / GI50 irradiated; for SI vs MC3T3, MCF7 Blue / SI vs NIH, MCF7 Blue: blue light; for SI vs MC3T3, MCF7 Blue / SI vs MC3T3, MCF7 Dark: GI50 MC3T3 / GI50 MCF7; for SI vs NIH, MCF7 Blue / SI vs NIH, MCF7 Dark: GI50 NIH-3T3 / GI50 MCF7
Method: as §1, §2, §3

[2] = test system: PC-3 prostate cancer cells; test: as above; assay type: cell-based, human; settings: for GI50: 72 h, MTT; for PI PC-3: GI50 non-irradiated / GI50 irradiated; for SI vs MC3T3, PC-3 Blue / SI vs NIH, PC-3 Blue: blue light; for SI vs MC3T3, PC-3 Blue / SI vs MC3T3, PC-3 Dark: GI50 MC3T3 / GI50 PC-3; for SI vs NIH, PC-3 Blue / SI vs NIH, PC-3 Dark: GI50 NIH-3T3 / GI50 PC-3
Method: as §1, §2, §3

T24 bladder cancer cells = test: as above; assay type: cell-based, human; settings: for GI50: 72 h, MTT; for PI T24: GI50 non-irradiated / GI50 irradiated; for SI vs MC3T3, T24 Blue / SI vs NIH, T24 Blue: blue light; for SI vs MC3T3, T24 Blue / SI vs MC3T3, T24 Dark: GI50 MC3T3 / GI50 T24; for SI vs NIH, T24 Blue / SI vs NIH, T24 Dark: GI50 NIH-3T3 / GI50 T24
Method: as §1, §2, §3

NIH3T3 = test: MTT cytotoxicity, 48 h; assay type: cell-based, murine
Method: The in vitro cytotoxicity of iridium(III) complexes 4a–4g was first evaluated against cancer cell lines PC-3 (human prostate) and T24 (human bladder) and the non-cancerous NIH-3T3 cell line (murine fibroblasts) using colorimetric MTT tests after 48 h of treatment. The dimeric iridium precursor [IrCl(ppy)2]2 was used as reference and the results are summarized in Table S1 (Supplementary Materials) in the supporting information file. […] The complexes were also evaluated for their cytotoxicity towards healthy NIH-3T3 cells, giving access to the selectivity index (SI). […] No linear correlation between lipophilicity and anti-cancer activity was found for the iridium(III) complexes 4a–4g. For the following biological studies, we focused on the C1 series.
Table S1. Cytotoxic activity of iridium(III) NHC complexes 4a−4g expressed as GI50 (μM) values towards selected cancer and normal cell lines as determined by MTT assay (48 h).a Complex PC-3 T24 NIH3T3 SI (PC-3) SI (T24) […]
a GI50 values correspond to the concentration of complexes causing 50 % inhibition of cell growth.
Data were obtained from three independent experiments.
The cytotoxic effects of the NHC precursors, the imidazolium salts, which represents the potential hydrolysis and/or degradation products of the complexes, have been published before [SI-1, SI-2]. […]

[3] = 458 nm irradiation 10 min, read-out: GI50 MC3T3 Blue
[4] = dark, read-out: GI50 MC3T3 Dark
[5] = 458 nm irradiation 10 min, read-out: GI50 NIH-3T3 Blue
[6] = dark, read-out: GI50 NIH-3T3 Dark
[7] = 458 nm irradiation 10 min, read-out: GI50 A549 Blue
[8] = 458 nm irradiation 10 min, read-out: GI50 HeLa Blue
[9] = 458 nm irradiation 10 min, read-out: GI50 MCF7 Blue
[10] = 458 nm irradiation 10 min, read-out: GI50 PC-3 Blue
[11] = 458 nm irradiation 10 min, read-out: GI50 T24 Blue

## F[P-](F)(F)(F)(F)F.c1ccc(C[n+]2ccn3[c]2[Ir-3]24([c]5ccccc5-c5cccc[n+]52)([c]2ccccc2-c2cccc[n+]24)[c]2n(cc[n+]2Cc2ccccc2)C3)cc1 [Complex 4c]
MC3T3 osteoblasts; [3]
  GI50: 1330 nM
MC3T3 osteoblasts; [4]
  GI50: 1160 nM
NIH-3T3 fibroblasts; [5]
  GI50: 2670 nM
NIH-3T3 fibroblasts
  PI NIH-3T3: 1.0
NIH-3T3 fibroblasts; [6]
  GI50: 2730 nM
A549 lung cancer cells; [7]
  GI50: 171 nM
A549 lung cancer cells
  PI A549: 2.4
  SI vs MC3T3, A549 Blue: 7.8
  SI vs NIH, A549 Blue: 15.6
A549 lung cancer cells; dark, read-out: GI50 A549 Dark
  GI50: 407 nM
A549 lung cancer cells; dark
  SI vs MC3T3, A549 Dark: 2.9
  SI vs NIH, A549 Dark: 6.7
HeLa cervix cancer cells; [8]
  GI50: 275 nM
HeLa cervix cancer cells
  PI HeLa: 1.8
  SI vs MC3T3, HeLa Blue: 4.8
  SI vs NIH, HeLa Blue: 9.7
HeLa cervix cancer cells; dark, read-out: GI50 HeLa Dark
  GI50: 494 nM
HeLa cervix cancer cells; dark
  SI vs MC3T3, HeLa Dark: 2.3
  SI vs NIH, HeLa Dark: 5.5
[1]; [9]
  GI50: 61 nM
[1]
  PI MCF7: 4.1
  SI vs MC3T3, MCF7 Blue: 21.8
  SI vs NIH, MCF7 Blue: 43.8
[1]; dark, read-out: GI50 MCF7 Dark
  GI50: 248 nM
[1]; dark
  SI vs MC3T3, MCF7 Dark: 4.7
  SI vs NIH, MCF7 Dark: 11.0
[2]; [10]
  GI50: 116 nM
[2]
  PI PC-3: 2.9
  SI vs MC3T3, PC-3 Blue: 11.5
  SI vs NIH, PC-3 Blue: 23.0
[2]; dark, read-out: GI50 PC-3 Dark
  GI50: 336 nM
[2]; dark
  SI vs MC3T3, PC-3 Dark: 3.5
  SI vs NIH, PC-3 Dark: 8.1
T24 bladder cancer cells; [11]
  GI50: 91 nM
T24 bladder cancer cells
  PI T24: 3.9
  SI vs MC3T3, T24 Blue: 14.6
  SI vs NIH, T24 Blue: 29.3
T24 bladder cancer cells; dark, read-out: GI50 T24 Dark
  GI50: 358 nM
T24 bladder cancer cells; dark
  SI vs MC3T3, T24 Dark: 3.2
  SI vs NIH, T24 Dark: 7.6
NIH3T3
  GI50: 7100 nM

## CC(C)C[n+]1ccn2[c]1[Ir-3]13([c]4ccccc4-c4cccc[n+]41)([c]1ccccc1-c1cccc[n+]13)[c]1n(cc[n+]1CC(C)C)C2.F[P-](F)(F)(F)(F)F [Complex 4b]
MC3T3 osteoblasts; [3]
  GI50: 704 nM
MC3T3 osteoblasts; [4]
  GI50: 979 nM
NIH-3T3 fibroblasts; [5]
  GI50: 1520 nM
NIH-3T3 fibroblasts
  PI NIH-3T3: 1.3
NIH-3T3 fibroblasts; [6]
  GI50: 1950 nM
A549 lung cancer cells; [7]
  GI50: 84 nM
A549 lung cancer cells
  PI A549: 4.2
  SI vs MC3T3, A549 Blue: 8.4
  SI vs NIH, A549 Blue: 18.1
A549 lung cancer cells; dark, read-out: GI50 A549 Dark
  GI50: 354 nM
A549 lung cancer cells; dark
  SI vs MC3T3, A549 Dark: 2.8
  SI vs NIH, A549 Dark: 5.5
HeLa cervix cancer cells; [8]
  GI50: 294 nM
HeLa cervix cancer cells
  PI HeLa: 2.1
  SI vs MC3T3, HeLa Blue: 2.4
  SI vs NIH, HeLa Blue: 5.2
HeLa cervix cancer cells; dark, read-out: GI50 HeLa Dark
  GI50: 625 nM
HeLa cervix cancer cells; dark
  SI vs MC3T3, HeLa Dark: 1.6
  SI vs NIH, HeLa Dark: 3.1
[1]; [9]
  GI50: 53 nM
[1]
  PI MCF7: 4.0
  SI vs MC3T3, MCF7 Blue: 13.3
  SI vs NIH, MCF7 Blue: 28.7
[1]; dark, read-out: GI50 MCF7 Dark
  GI50: 211 nM
[1]; dark
  SI vs MC3T3, MCF7 Dark: 4.6
  SI vs NIH, MCF7 Dark: 9.2
[2]; [10]
  GI50: 71 nM
[2]
  PI PC-3: 3.6
  SI vs MC3T3, PC-3 Blue: 9.9
  SI vs NIH, PC-3 Blue: 21.4
[2]; dark, read-out: GI50 PC-3 Dark
  GI50: 257 nM
[2]; dark
  SI vs MC3T3, PC-3 Dark: 3.8
  SI vs NIH, PC-3 Dark: 7.6
T24 bladder cancer cells; [11]
  GI50: 90 nM
T24 bladder cancer cells
  PI T24: 2.8
  SI vs MC3T3, T24 Blue: 7.7
  SI vs NIH, T24 Blue: 16.7
T24 bladder cancer cells; dark, read-out: GI50 T24 Dark
  GI50: 259 nM
T24 bladder cancer cells; dark
  SI vs MC3T3, T24 Dark: 3.8
  SI vs NIH, T24 Dark: 7.5
NIH3T3
  GI50: 3500 nM
